In US20040141912A1, “Method for targeting chemical compounds to cells and pharmaceutical compositions used therein” (priority 2001, published 2004):
Entries after “also recorded” stand apart in the source; their conditions may differ.

Assays:
[1] = test system: Jurkat cells; test: Fluorescent microscopy of DDL uptake by Jurkat cells induced to undergo apoptosis by anti-Fas antibody; format: cell-based, human
Description: FIG. 1: Jurkat cells were treated with anti-Fas antibody (0.1 μg/ml) for three hours. As a result, a marked percentage of the cells became apoptotic (i.e., PLS-activated cells). For subsequent inhibition of PLS, culture was then treated for 30 minutes with EGTA (1 mM) and BAPTA (20 μM), (i.e., PLS-inhibited culture). Both cultures were treated with DDL (1 μM, 2 minutes) and visualized by a fluorescent microscope (Olympus):
Cultured Jurkat cells (human adult T cell leukemia cells) were grown in suspension in RPMI medium (Beit-Haemek, Israel), supplemented with 10% of fetal calf serum (FCS), 4 mM of L-glutamine, 1 mM of sodium pyruvate, 1 mM CaCl2 and antibiotics (100 units/ml penicilin; 100 μg/ml streptomycin and 12.5 units/ml of nystatin). Prior to induction of apoptosis, medium was replaced with HBS buffer (10 mM HEPES; 140 mM NaCl, 1 mM CaCl). Apoptosis was then triggered by treatment with anti-Fas Ab (0.1 μg/ml; 3 hrs).
Such a procedure culminates in accumulation of a large percentage of apoptotic cells within the culture. Culture was then incubated with DDL at a final concentration of 1 μM for 5 minutes, and then taken immediately for fluorescent microscopy [Olympus fluorescent microscope, model IX70, excitation wavelength of 360 nm, emission at 530 nm].
Modulation of PLS activity was achieved by the calcium depletion-repletion procedure (Momchilova, A., et al., 2000). Inhibition of PLS by Ca^2+-deprivation was performed by cell incubation with the extra-and intracellular chelating agents EGTA (Ethylen glycol-bis (β-aminoethyl ether)-N,N,N′-tetraacetic acid, 1 mM) and BAPTA-AM ([1,2-bis(o-Amino-phenoxy) ethane-N,N,N′,N′-tetraacetic acid tetra-(acetoxymethyl) ester, 20 μM, respectively. Such a procedure eliminates any traces of Ca^2+ possibly present either intra- or extra-cellularly. Subsequent to the induction of apoptosis for three hours, cells were subjected to said PLS inhibition for 30 minutes. Cells were then incubated with DDL for 5 minutes, and subjected to fluorescent microscopy.
For re-activation of PLS, the EGTA/BAPTA-treated cells were now treated with CaCl (1 mM) and calcium ionophore A23187 (2 μM, Calbiochem, Darmstadt, Germany), thus elevating ambient Ca^2+ levels.

[2] = test system: HeLa S3 cells; test: Flow-cytometric (FACS) analysis of DDL binding to apoptotic cells in aged HeLa culture; format: cell-based; details: HeLa aged 96 h
Description: FIG. 2: HeLa cells were allowed to age by incubating the culture for 96 hours without exchange of the growth medium. As a result, a marked percentage of the cells became apoptotic. Cells were then incubated with DDL (1 μM, 2 minutes) under three different conditions: PLS-activation; PLS-inhibition; and reactivation of inhibited-PLS as defined above. Shown is quantitative analysis of fluorescence intensity (geomean) values.
For this purpose, cultured, aged HeLa S3 cells (ATCC CCL-2.2) were grown in Dulbecco's modified Eagle's medium (DMEM), containing CaCl (1.8 mM) and supplemented with 2 mM of L-glutamine; 100 units/ml of penicillin; 100 μg/ml of streptomycin; 12.5 units/ml of nystatin and 10% of fetal calf serum (FCS). Cells were seeded at a density of 5×10^6 cells/plate on a […] culture plates in a volume of 10 ml, and were allowed to age in culture for 96 hours without exchange of the growing medium. Such a procedure culminates in a large percentage of apoptotic cells within the culture. Culture (1×10^7/ml) was then incubated with DDL at a final concentration of 5 μM in HBS for 5 minutes, and taken immediately for FACS analysis for detection of bound DDL, using Becton-Dickinson cell sorter and CellQuest software. Excitation was at 360 nm and emission was measured at 530 nm.
Three different conditions were examined (FIG. 2): PLS-activation by the apoptotic process, PLS-inhibition; and reactivation of inhibited-PLS.

CN(C)c1cccc2c(S(=O)(=O)NCCCCC(NS(=O)(=O)c3cccc4c(N(C)C)cccc34)C(=O)O)cccc12 (centres unmarked) [DDL]
DDL uptake after re-activation of PLS ([1]; EGTA/BAPTA-treated cells + Ca2+ 1 mM + calcium ionophore A23187 2 μM): re-acquisition of a strong DDL uptake; also recorded: fast, selective and marked uptake
DDL uptake (fluorescence) by apoptotic cells ([1]; PLS-activated culture, anti-Fas Ab 0.1 μg/ml 3 h, DDL 1 μM): Some of the cells manifest DDL binding; also recorded: Selective and fast uptake
Intracellular localisation of DDL fluorescence ([1]; apoptotic cells): staining the cytoplasm but not the nucleus; also recorded: in the cytoplasm of those cells but not within the nuclei
DDL uptake (fluorescence intensity) after PLS inhibition ([1]; apoptotic cells, Ca2+-deprivation: EGTA 1 mM + BAPTA 20 μM, 30 min, DDL 1 μM): marked reduction in the intensity of DDL-binding; also recorded: marked decrease in DDL uptake
DDL binding by intact cells not undergoing apoptosis ([1]; same culture, DDL 1 μM): did not bind manifest significant DDL
DDL binding (fluorescence shift) after reactivation of PLS ([2]; Ca2+ re-administration): restored this shift
DDL binding (fluorescence shift) after PLS inhibition ([2]; Ca2+-deprivation): almost completely abolished this shift
DDL binding (fluorescence shift), PLS-activated apoptotic cells ([2]; PLS-activation by the apoptotic process): distinct shift to higher fluorescence levels
